{
  "source": "patent US20240252571A1",
  "about": "“Hemp Essential Oil” (priority 2023, published 2024)",
  "origin": "cited, not measured here",
  "key": {"SZ95 sebocytes [1]": {"test_system": "SZ95 sebocytes", "settings": "for effect on the lipid synthesis-inhibitory (lipostatic) action of CBD: coapplication with CBD"}, "SZ95 sebocytes [2]": {"test_system": "SZ95 sebocytes"}, "mild AD": {"test_system": "mild AD", "settings": "pediatric population"}, "[3]": {"test_system": "Methicillin-resistant Staphylococcus aureus (MRSA)"}, "Enterococcus faecalis": {"test_system": "Enterococcus faecalis", "settings": "E. faecalis"}, "[4]": {"test_system": "Methicillin-resistant Staphylococcus epidermidis (MRSE)"}, "human sebaceous glands": {"test_system": "human sebaceous glands", "settings": "ex vivo hSOC"}, "[5]": {"test_system": "TNFA, IL1B and IL6 expression in human sebocytes"}, "[6]": {"test_system": "ionic currents of SZ95 sebocytes", "settings": "CBD 10 μM, voltage ramp, -90 and +90 mV"}, "[7]": {"test_system": "intracellular calcium concentration of SZ95 sebocytes", "settings": "for effect on the CBD-induced increase of [Ca2+]IC: with CBD"}, "[8]": {"settings": "ethosomal carriers, murine model"}, "[9]": {"settings": "CBD 1-10% gel, monoarthritic rat; plasma concentration linear with dose"}, "[10]": {"test_system": "Normal Human Epidermal Keratinocytes (NHEK)", "settings": "HMOX1 most upregulated"}, "mice epidermis": {"test_system": "mice epidermis", "settings": "topical application"}, "[11]": {"test_system": "allergic contact dermatitis model", "settings": "experimental allergic contact dermatitis model"}, "Listeria monocytogenes": {"test_system": "Listeria monocytogenes", "settings": "L. monocytogenes"}, "[12]": {"test_system": "Human dermal fibroblasts (HDFs)", "settings": "compared with vitamin C"}, "[13]": {"settings": "in vitro diffusion, human tissue"}, "human skin equivalents": {"test_system": "human skin equivalents", "settings": "compared with CBD"}, "[14]": {"test_system": "Interleukin-1β, -6, -8, tumor necrosis factor α release", "settings": "inducers UVA, UVB, chemical, C. acnes"}, "itching": {"test_system": "itching", "settings": "murine models"}, "[15]": {"settings": "lower CBD concentrations, 1-100 nM"}},
  "note": "Entries after “also recorded” stand apart in the source; their conditions may differ. Like-named read-outs stand apart in the source and are kept apart here. Where a SMILES comes first, the peptide text is derived from it.",
  "data": [
    {"smiles": "CCCCC/C=C\\C/C=C\\C/C=C\\C/C=C\\CCCC(=O)NCCO", "note": "[AEA, N-arachidonoyl ethanolamide]", "values": [
      {"measurement": "lipid production in human sebocytes", "setting": "SZ95 sebocytes [1]; low concentrations", "value": "stimulate lipid production"},
      {"measurement": "apoptosis of human sebocytes", "setting": "SZ95 sebocytes [2]; higher levels", "value": "induces apoptosis"}
    ]},
    {"smiles": "Cc1c(C(=O)NN2CCCCC2)nn(-c2ccc(Cl)cc2Cl)c1-c1ccc(I)cc1", "note": "[AM251]", "values": [
      {"measurement": "effect on the lipid synthesis-inhibitory (lipostatic) action of CBD", "setting": "SZ95 sebocytes [1]", "value": "neither CB1- nor CB2-specific antagonists (AM251 and AM630) were able to antagonize"}
    ]},
    {"smiles": "COc1ccc(C(=O)c2c(C)n(CCN3CCOCC3)c3cc(I)ccc23)cc1", "note": "[AM630]", "values": [
      {"measurement": "effect on the lipid synthesis-inhibitory (lipostatic) action of CBD", "setting": "SZ95 sebocytes [1]", "value": "neither CB1- nor CB2-specific antagonists (AM251 and AM630) were able to antagonize"}
    ]},
    {"smiles": "O=C(CCCCCCCC(=O)NCCO)NCCO", "note": "[Adelmidrol]", "values": [
      {"measurement": "efficacy in mild AD", "setting": "mild AD", "value": "effective in treating mild AD"}
    ]},
    {"smiles": "CC[C@H](C)[C@H](N)C1=N[C@H](C(=O)N[C@@H](CC(C)C)C(=O)N[C@H](CCC(=O)O)C(=O)N[C@H](C(=O)N[C@H]2CCCCNC(=O)[C@H](CC(N)=O)NC(=O)[C@@H](CC(=O)O)NC(=O)[C@H](Cc3cnc[nH]3)NC(=O)[C@@H](Cc3ccccc3)NC(=O)[C@H]([C@@H](C)CC)NC(=O)[C@@H](CCCN)NC2=O)[C@@H](C)CC)CS1", "note": "[BAC, Bacitracin] (HELM PEPTIDE1{[CC[C@H](C)[C@H](N)C1=N[C@H](C(=O)[*:2])CS1].L.[dE].I.K.[NCCC[C@@H](N[*:1])C(=O)[*:2]].I.[dF].H.[dD].N}$PEPTIDE1,PEPTIDE1,5:R3-11:R2$$$V2.0)", "values": [
      {"measurement": "reduction of MIC of BAC versus BAC alone", "setting": "[3]; MRSA, combined with ½ MIC of C3D", "value": "≥ 64", "unit": "fold"},
      {"measurement": "reduction of MIC of BAC versus BAC alone", "setting": "Enterococcus faecalis; combined with ½ MIC of C3D", "value": "≥ 64", "unit": "fold"},
      {"measurement": "reduction of MIC of BAC versus BAC alone", "setting": "[4]; combined with ½ MIC of C3D", "value": "≥ 64", "unit": "fold"}
    ]},
    {"smiles": "C=C(C)[C@@H]1CCC(C)=C[C@H]1c1c(O)cc(CCCCC)cc1O", "note": "[CBD, cannabidiol]", "values": [
      {"measurement": "lipid synthesis induced by arachidonic acid (AA)", "setting": "SZ95 sebocytes [1]", "value": "effectively inhibited"},
      {"measurement": "lipid synthesis induced by the combination of linoleic acid and testosterone (LA-T)", "setting": "SZ95 sebocytes [1]", "value": "effectively inhibited"},
      {"measurement": "lipogenesis", "setting": "SZ95 sebocytes [1]; 10 μM CBD, 6-day treatments", "value": "decreased"},
      {"measurement": "lipogenesis", "setting": "SZ95 sebocytes [1]; 50 μM CBD", "value": "decreased lipogenesis"},
      {"measurement": "basal neutral (sebaceous) lipid synthesis", "setting": "SZ95 sebocytes [1]; CBD 1-10 μM, 24-hour treatment", "value": "neither semiquantitative Oil Red O nor quantitative Nile Red staining indicated changes; also recorded: no changes"},
      {"measurement": "inhibition of the lipogenic action of AEA", "setting": "SZ95 sebocytes [1]; CBD 1-10 μM, dose-dependent", "value": "markedly inhibited; also recorded: quell the lipogenic actions in a dose-dependent manner"},
      {"measurement": "AA-enhanced \"pathological\" lipogenesis (lipidome)", "setting": "SZ95 sebocytes [1]; acne-like conditions with AA", "value": "almost completely normalized"},
      {"measurement": "lipid synthesis induced by arachidonic acid (AA)", "setting": "SZ95 sebocytes [1]; listed as CDI", "value": "inhibit extraneous lipid synthesis"},
      {"measurement": "lipid synthesis induced by the combination of linoleic acid and testosterone (LA-T)", "setting": "SZ95 sebocytes [1]; listed as CDI", "value": "inhibit extraneous lipid synthesis"},
      {"measurement": "AA-induced lipid synthesis", "setting": "SZ95 sebocytes [1]; [15]", "value": "did not influence"},
      {"measurement": "basal lipid synthesis", "setting": "SZ95 sebocytes [1]; [15]", "value": "did not influence"},
      {"measurement": "cell number", "setting": "SZ95 sebocytes [2]; 10 μM CBD, elongated application, 6-day treatments", "value": "decreased; also recorded: reduced"},
      {"measurement": "cytotoxicity", "setting": "SZ95 sebocytes [2]; 50 μM CBD", "value": "evoked apoptosis-driven cytotoxicity"},
      {"measurement": "cellular viability, apoptosis, necrosis", "setting": "SZ95 sebocytes [2]; CBD 1-10 μM", "value": "did not decrease cellular viability or induce either apoptosis or necrosis"},
      {"measurement": "proliferation of SZ95 sebocytes", "setting": "SZ95 sebocytes [2]; CBD 1-10 μM", "value": "significantly reduce"},
      {"measurement": "basal lipogenesis in situ", "setting": "human sebaceous glands", "value": "decreased basal lipogenesis"},
      {"measurement": "expression of the proliferation marker MKI67", "setting": "human sebaceous glands", "value": "markedly suppressed"},
      {"measurement": "lipogenic action of AEA in situ", "setting": "human sebaceous glands", "value": "completely prevented"},
      {"measurement": "IL1B expression", "setting": "[5]; LPS-induced", "value": "normalize"},
      {"measurement": "IL6 expression", "setting": "[5]; LPS-induced", "value": "normalize"},
      {"measurement": "elevation of TNFA expression", "setting": "[5]; induced by TLR2 activator lipoteichoic acid (LTA)", "value": "completely prevented"},
      {"measurement": "elevation of TNFA expression", "setting": "[5]; induced by TLR4 activator LPS", "value": "completely prevented"},
      {"measurement": "elevation of TNFA expression", "setting": "[5]; induced by pro-acne LA-T combination", "value": "prevent"},
      {"measurement": "membrane currents", "setting": "[6]", "value": "induced a mostly outwardly rectifying current and a positive shift in the reversal potential"},
      {"measurement": "intracellular calcium concentration ([Ca2+]IC)", "setting": "[7]", "value": "significantly increased"},
      {"measurement": "transdermal delivery", "setting": "[8]", "value": "successful transdermal delivery"},
      {"measurement": "absorption after topical application", "setting": "[9]", "value": "well-absorbed"},
      {"measurement": "expression of NRF2 target genes", "setting": "[10]", "value": "induced the expression of several NRF2 target genes"},
      {"measurement": "levels of HMOX1 and expression of keratins 16 and 17", "setting": "mice epidermis", "value": "increased"},
      {"measurement": "peroxide-induced reduction of polyunsaturated fatty acids in the cell membrane", "setting": "human keratinocytes", "value": "protective effect"},
      {"measurement": "oxidative stress response", "setting": "human keratinocytes; UVB irradiation and hydrogen peroxide", "value": "balance the oxidative stress response"},
      {"measurement": "anti-inflammatory properties", "setting": "[11]", "value": "exhibit anti-inflammatory properties"},
      {"measurement": "activity against a variety of MRSA strains", "setting": "[3]", "value": "potent activity"},
      {"measurement": "Minimum Inhibitory Concentration (MIC)", "setting": "[3]; MRSA", "value": 4, "unit": "µg/mL"},
      {"measurement": "Minimum Inhibitory Concentration (MIC)", "setting": "Listeria monocytogenes", "value": 4, "unit": "µg/mL"},
      {"measurement": "Minimum Inhibitory Concentration (MIC)", "setting": "Enterococcus faecalis", "value": 8, "unit": "µg/mL"},
      {"measurement": "Minimum Inhibitory Concentration (MIC)", "setting": "[4]", "value": 8, "unit": "µg/mL"},
      {"measurement": "reactive oxygen species levels", "setting": "[12]", "value": "reduce reactive oxygen species levels in HDFs better than vitamin C"},
      {"measurement": "permeation", "setting": "[13]", "value": "demonstrated CBD's permeation potential"}
    ]},
    {"smiles": "CCCCCc1cc(O)c(C/C=C(\\C)CCC=C(C)C)c(O)c1", "note": "[CBG, cannabigerol]", "values": [
      {"measurement": "activity against a variety of MRSA strains", "setting": "[3]", "value": "potent activity"},
      {"measurement": "genes regulated", "setting": "human skin equivalents", "value": "regulates more genes than CBD"},
      {"measurement": "reactive oxygen species levels", "setting": "[12]", "value": "reduce reactive oxygen species levels in HDFs better than vitamin C"},
      {"measurement": "pro-inflammatory cytokine release", "setting": "[14]", "value": "inhibits"}
    ]},
    {"smiles": "Cc1c(C(=O)Nc2cccc(C(F)(F)F)c2)cc(-c2ccccc2)n1CCCN1CCOCC1", "note": "[HC067047]", "values": [
      {"measurement": "basal lipid synthesis", "setting": "SZ95 sebocytes [1]; TRPV4 antagonist alone", "value": "did not affect basal lipid synthesis"},
      {"measurement": "effect on the lipid synthesis-inhibitory (lipostatic) action of CBD", "setting": "SZ95 sebocytes [1]", "value": "prevented"},
      {"measurement": "effect on the CBD-induced increase of [Ca2+]IC", "setting": "[7]", "value": "antagonized"}
    ]},
    {"smiles": "CCCCCCCCCCCCCCCC(=O)NCCO", "note": "[PEA]", "values": [
      {"measurement": "itching", "setting": "itching", "value": "reduce itching"}
    ]},
    {"smiles": "CCCCCc1cc(O)c2c(c1)OC(C)(C)[C@@H]1CCC(C)=C[C@@H]21", "note": "[THC, tetrahydrocannabinol]", "values": [
      {"measurement": "itching", "setting": "itching", "value": "reduce itching"}
    ]},
    {"smiles": "COc1cc(CNC(=O)CCCC/C=C/C(C)C)ccc1O", "note": "[capsaicin]", "values": [
      {"measurement": "lipostatic action by activation of TRPV1", "setting": "SZ95 sebocytes [1]", "value": "potent lipostatic actions"}
    ]},
    {"smiles": "N.N.N.N.N.N.N.N.N.N.N.N.N.N.[Cl-].[Cl-].[Cl-].[Cl-].[Cl-].[Cl-].[O-2].[O-2].[Ru+3].[Ru+3].[Ru+4]", "note": "[ruthenium red]", "values": [
      {"measurement": "effect on the CBD-induced increase of [Ca2+]IC", "setting": "[7]", "value": "antagonized"}
    ]}
  ]
}
